In ChEMBL document CHEMBL1121806, “Inhibition of the renin-angiotensin system. A new approach to the therapy of hypertension” (J Med Chem, 1981):
Values belong to the molecule of their own block, whether it stands above or below them. Starred links: 1 amine or outer side, 2 acyl side, 3 side chain; linkers in the order of their positions; H or OH if unused. Non-standard residues stand in square brackets, D forms with d. Residues, ends and D or L forms follow the SMILES beside them. ξ: configuration not given here. *: point of attachment. Sta(3ξ) = CC(C)C[C@H](N[*:1])C(O)CC(=O)[*:2]; Isovaleryl = CC(C)CC(=O)*

Assays:
Renin = target: T1, Renin (Homo sapiens, UniProt P00797); assay: Antihypertensive activity against human renin
T1 sequence (P00797 whole entry): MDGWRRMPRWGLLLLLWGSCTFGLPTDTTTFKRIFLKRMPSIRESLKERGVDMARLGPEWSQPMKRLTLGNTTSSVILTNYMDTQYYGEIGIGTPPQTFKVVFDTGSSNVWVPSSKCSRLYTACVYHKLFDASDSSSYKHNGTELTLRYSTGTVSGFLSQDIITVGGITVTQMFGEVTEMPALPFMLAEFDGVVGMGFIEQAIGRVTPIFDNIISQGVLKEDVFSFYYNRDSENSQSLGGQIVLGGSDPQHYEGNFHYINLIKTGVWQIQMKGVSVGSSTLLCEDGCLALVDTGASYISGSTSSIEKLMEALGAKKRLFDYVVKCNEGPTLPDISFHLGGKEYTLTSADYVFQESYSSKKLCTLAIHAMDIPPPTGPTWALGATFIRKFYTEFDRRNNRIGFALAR

[1] = substrate: CC[C@H](C)[C@H](NC(=O)[C@H](Cc1ccc(O)cc1)NC(=O)[C@@H](NC(=O)[C@H](CCCN=C(N)N)NC(=O)[C@@H](N)CC(=O)O)C(C)C)C(=O)N[C@@H](Cc1c[nH]cn1)C(=O)N1CCC[C@H]1C(=O)N[C@@H](Cc1ccccc1)C(=O)N[C@@H](Cc1c[nH]cn1)C(=O)N[C@@H](CC(C)C)C(=O)O; assay: The compound was tested for its antihypertensive activity against human renin; format: functional

Molecule: C[C@H](CC(=O)O)C(=O)N1CCC[C@H]1C(=O)O
Ki (Renin): 2500 nM

Molecule: CC(C)C[C@H](NC(=O)[C@H](Cc1cnc[nH]1)NC(=O)[C@H](Cc1ccccc1)NC(=O)[C@H]1CCCN1C(=O)[C@H](Cc1cnc[nH]1)NC(=O)[C@H]1CCCN1)C(=O)N[C@@H](Cc1ccccc1)C(=O)N[C@H](C(=O)N[C@@H](Cc1ccc(O)cc1)C(=O)O)C(C)C
Ki (Renin): 4000 nM

Molecule: C[C@@H](NC(=O)[C@H](Cc1ccccc1)NP(=O)(O)Oc1ccccc1)C(=O)O
Ki (Renin): 2200 nM

Molecule: C[C@H](NP(=O)(O)Oc1ccccc1)C(=O)N1CCC[C@H]1C(=O)O
Ki (Renin): 1 nM

Molecule: CC(C)C[C@H](NC(=O)[C@H](Cc1cnc[nH]1)NC(=O)[C@H](Cc1ccccc1)NC(=O)[C@H]1CCCN1C(=O)[C@H](Cc1cnc[nH]1)NC(=O)[C@H]1CCCN1)C(=O)N[C@@H](CC(C)C)C(=O)N[C@H](C(=O)N[C@@H](Cc1ccc(O)cc1)C(=O)O)C(C)C
Ki (Renin): 42000 nM

B1: Renin (Homo sapiens), P00797 (protein)
chain: T1 sequence (P00797 whole entry)
Km [1]: 50 µM

More lines, now with the values ahead:

Ki (Renin): 300 nM
Molecule: COC(=O)[C@H](CCCN=C(N)N)NC(=O)CC(O)[C@H](CC(C)C)NC(=O)[C@H](C)NC(=O)CC(O)[C@H](CC(C)C)NC(=O)[C@@H](NC(=O)[C@@H](NC(=O)CC(C)C)C(C)C)C(C)C (some centres undefined) (Isovaleryl-VV[Sta(3ξ)]A[Sta(3ξ)]R-OMe)

Ki (Renin): 800 nM
Molecule: H-EWPRPQIPP-OH

Ki (Renin): 1.7 nM
Molecule: C[C@H](CS)C(=O)N1CCC[C@H]1C(=O)O [CAPTOPRIL]

Ki (Renin): 800 nM
Molecule: C[C@H](CCC(=O)O)C(=O)N1CCC[C@H]1C(=O)O

Ki (Renin): 100 nM
Molecule: CC(C)CC(=O)N[C@H](C(=O)N[C@H](C(=O)N[C@@H](CC(C)C)C(O)CC(=O)N[C@@H](C)C(=O)N[C@@H](CC(C)C)C(O)CC(=O)N[C@@H](CCCN=C(N)N)C(=O)O)C(C)C)C(C)C (some centres undefined) (Isovaleryl-VV[Sta(3ξ)]A[Sta(3ξ)]R-OH)

Ki (Renin): 1000 nM
Molecule: CC(C)[C@H](NC(=O)[C@H](Cc1ccccc1)NC(=O)[C@H](Cc1ccccc1)NC(=O)[C@H](Cc1c[nH]cn1)NC(=O)[C@H](Cc1ccccc1)NC(=O)[C@H]1CCCN1C(=O)[C@H](Cc1c[nH]cn1)NC(=O)[C@H]1CCCN1)C(=O)N[C@@H](Cc1ccc(O)cc1)C(=O)O

Ki (Renin): 1.2 nM
Molecule: C[C@H](NC(CCc1ccccc1)C(=O)O)C(=O)N1CCC[C@H]1C(=O)O (some centres undefined)

Ki (Renin): 600 nM
Molecule: C[C@H](CC(=O)NO)C(=O)N1CCC[C@H]1C(=O)O
